Source: patent US11318190B2, “Methods and compositions for treating liver disease” (UNITED STATES GOVERNMENT AS REPRESENTED BY THE DEPARTMENT …, priority 2017, dated 2022)
“Also recorded” adds a separate entry of the source.

Assays:
HHSteCs = HHSteCs incubated with biliary/IMCL supernatants with/without LY2109761, or with TGF-β1 (Example 2); type: cell-based, human
Description: Biliary supernatants were obtained from normal and BDL WT mice and Sct^−/−, SR^−/− and Sct^−/−/SR^−/− BDL mice as well as normal WT mice treated with saline or secretin. HHSteCs were incubated with the aforementioned biliary supernatants (containing different levels of TGF-β1) for 24 hr (in the absence or presence of LY2109761) before measuring the expression of senescence and fibrosis genes by real-time PCR. Furthermore, HHSteCs were incubated with the supernatant of large IMCLs treated for 0.2% bovine serum albumin (basal) or secretin (10 nM) with/without LY2109761 for 6 hr before measuring the mRNA expression of fibrosis and senescence genes. To provide direct evidence that TGF-β1 directly modulates fibrosis and senescence of IMCLs and HHSteCs, these cells were stimulated with TGF-β1 (10 nM) for 24 hr before measuring the expression of PCNA as well as fibrosis and senescence genes by real-time PCR.

dnTGF-βRII mice [1] = test: dnTGF-βRII mice 32-34 wk (late stage PBC model) treated 1 wk by osmotic minipump; type: in vivo, mouse; conditions: for intrahepatic bile duct mass (IBDM, CK-19): 1 wk minipump
Description: (§1) Briefly, we used wild-type (WT), dnTGFβRII 12 wk and dnTGFβRII 34 wk mice treated with control or SR antagonist (SCT 5-27) minipump (10 μg/kg/day) for 1 wk. Hepatic damage was shown by H&E. IBDM and cholangiocyte proliferation were measured by immunohistochemistry for CK-19 and Ki67, respectively. Biliary apoptosis was evaluated by TUNEL staining. Senescence was measured in cholangiocytes by immunofluorescence for CCL2 or p16 co-stained with CK-19 (to image bile ducts) and SA-β-Galactosidase activity. Hepatic fibrosis was assessed by qPCR for collagen-1a and α-SMA in total liver, and quantification of Sirius Red staining. Hepatic stellate cell (HSC) activation was evaluated by immunofluorescence (IF) for Syp-9. HSC senescence was evaluated by IF for CCL2 or p16 co-stained with desmin (to visualize HSCs). Secretin levels in serum and bile were measured by EIA. Bile and serum were obtained from human control, early PBC and advanced PBC patients, and secretin was evaluated by EIA.
(§2) All animal procedures were performed according to protocols approved by the Baylor Scott & White Health IACUC Committee. Transgenic mice expressing a dominant-negative form of the human transforming growth factor-beta receptor II (dnTGF-βRII) were obtained from Dr. M. Eric Gershwin at UC Davis Health (Sacramento, Calif.), and background-matched wild-type (WT, strain C57BL/6) mice were purchased from Charles River Laboratories (Wilmington, Mass.); the breeding colony is established in our animal facility. Animals were maintained in micro-isolator cages in a temperature-controlled environment with 12/12-hr light/dark cycles and fed ad libitum standard chow with free access to drinking water. Studies were performed in 12 wk-old WT mice, and 12 wk-old (mimic early stage PBC) and 32 wk-old (mimic late stage PBC) female and male dnTGF-βRII mice (25-30 gm) that were treated with either saline, secretin (Sct; 2.5 nmoles/kg body weight per day; Bachem, Torrance, Calif.) or the secretin receptor (SR) antagonist, Sec 5-27 (10 μg/kg body weight per day; Thermo Fisher Scientific, Waltham, Mass.) for 1 wk by intraperitoneally implanted osmotic minipump. Liver tissue samples and blocks (formalin-fixed, paraffin-embedded and OCT-embedded), serum, bile, cholangiocytes, and cholangiocyte supernatants (after incubation at 37° C. for 4 hr) were collected as described.
(§3) Hematoxylin and eosin (H&E) staining was performed in formalin-fixed, paraffin-embedded liver sections (4-5 μm, 3 samples from 3 different animals) to determine liver morphology. H&E stained liver sections were evaluated by a board-certified pathologist to assess the degree of lobular damage, hepatic necrosis and portal inflammation. At least 10 different portal areas were evaluated for each parameter. Liver sections were examined in a coded fashion by BX-51 light microscopy (Olympus, Tokyo, Japan) equipped with a camera (See, Mancinelli, R et al., Ischemia reperfusion of the hepatic artery induces the functional damage of large bile ducts by changes in the expression of angiogenic factors. Am J Physiol Gastrointest Liver Physiol 2015; 309:G865-873 (2015); Taffetani S et al., Prolactin stimulates the proliferation of normal female cholangiocytes by differential regulation of Ca2+-dependent PKC isoforms, BMC Physiol 7:6 (2007)).
(§4) Serum levels of alkaline phosphatase (ALP) and γ-glutamyltransferase (γGT) are commonly used to diagnose PBC (Heathcote, E J, Management of primary biliary cirrhosis. The American Association for the Study of Liver Diseases practice guidelines, Hepatology 31:1005-1013 (2000)); therefore, were measured serum levels of ALP and γGT in mouse serum samples using the Alkaline Phosphatase Assay Kit and γ-Glutamyltransferase Activity Colorimetric Assay Kit, respectively (Abcam; Cambridge, Mass.).
(§5) Early stage PBC is identified by cholangiocyte proliferation, whereas late stage PBC is characterized by ductopenia. […]

dnTGF-βRII mice [2] = test: dnTGF-βRII mice 12 wk (early stage PBC model) treated 1 wk by osmotic minipump; type: in vivo, mouse; conditions: dnTGF-βRII 12 wk
Description: as §1, §2, §3, §4, §5

[3] = cholangiocyte supernatant from secretin-treated WT mice, 24 hr
[4] = supernatant of large IMCLs after secretin 10 nM, 6 hr
[5] = dnTGF-βRII 32/34 wk, vs saline treated

## secretin [Sct]
HHSteCs; [3]
  expression of fibrosis genes in HHSteCs: increased expression
  expression of senescence genes in HHSteCs: reduced expression
HHSteCs; [4]
  expression of senescence genes of HHSteCs: decreases
  fibrosis gene expression of HHSteCs: increases
dnTGF-βRII mice [1]; dnTGF-βRII 32/34 wk
  biliary senescence (p16, p18, p21, CCL2): reduced
  cholangiocyte apoptosis (TUNEL): reduced
  collagen content / deposition (Sirius Red), hepatic fibrosis: decreased; also recorded: reduced
dnTGF-βRII mice [1]; [5]
  Sct, SR, CFTR and AE2 expression: increased expression
  intrahepatic bile duct mass (IBDM, CK-19): increased
dnTGF-βRII mice [1]; dnTGF-βRII 32/34 wk, vs saline treated, listed as secretin
  intrahepatic bile duct mass (IBDM, CK-19): increased biliary mass in the late stage PBC mice back to normal levels
dnTGF-βRII mice [1]; dnTGF-βRII 32/34 wk, listed as secretin
  collagen content / deposition (Sirius Red), hepatic fibrosis: significantly reduced
dnTGF-βRII mice [1]; dnTGF-βRII 34 wk
  HSC activation (SYP-9): reduced
  biliary growth / cholangiocyte proliferation: increased
  liver damage (H&E): ameliorate; also recorded: reduced
  secretin levels (serum; serum and bile): increased
dnTGF-βRII mice [1]; dnTGFβRII 12 and 34 wk as printed
  Liver inflammation, Kupffer cell number: reduced
dnTGF-βRII mice [1]; dnTGFβRII 34 wk
  TBA levels: reduced
dnTGF-βRII mice [1]; late stage PBC model
  serum levels of ALP and γGT: reduced
dnTGF-βRII mice [2]
  HSC activation (SYP-9 staining): further enhanced
  biliary senescence (p16, p18, p21, CCL2): further increased
  cholangiocyte apoptosis (TUNEL-positive cholangiocytes): further reduced
  liver damage (H&E: portal inflammation, inflammatory infiltration, lobular necrosis): further increased
dnTGF-βRII mice [2]; vs saline treated
  Sct, SR, CFTR and AE2 expression: further increase
  collagen content / deposition (Sirius Red), hepatic fibrosis: further enhanced
  serum levels of ALP and γGT: further increased
dnTGF-βRII mice [2]; vs saline treated, 1 wk minipump
  intrahepatic bile duct mass (IBDM, CK-19): further increase
